Measurements: the kinase profiling compilation of Christmann-Franck et al. (2016)

Assays:
TNK2 (human) = TNK2 (human) (UniProt Q07912); test: KINOMEscan competition binding; conditions: compound 10.0 µM
ROS1 (human) = ROS1 (human) (UniProt P08922); test: KINOMEscan competition binding; conditions: compound 10.0 µM
DCLK1 (human) = DCLK1 (human) (UniProt O15075); test: KINOMEscan competition binding; conditions: compound 10.0 µM
FRK (human) = FRK (human) (UniProt P42685); test: KINOMEscan competition binding; conditions: compound 10.0 µM
ALK (human) = ALK (human) (UniProt Q9UM73); test: KINOMEscan competition binding; conditions: compound 10.0 µM
ULK2 (human) = ULK2 (human) (UniProt Q8IYT8); test: KINOMEscan competition binding; conditions: compound 10.0 µM
TNK1 (human) = TNK1 (human) (UniProt Q13470); test: KINOMEscan competition binding; conditions: compound 10.0 µM
[1] = tested on: ABL1 (human), P00519 [F317I]; test: KINOMEscan competition binding; conditions: compound 10.0 µM
PLK1 (human) = PLK1 (human) (UniProt P53350); test: KINOMEscan competition binding; conditions: compound 10.0 µM
DCLK2 (human) = DCLK2 (human) (UniProt Q8N568); test: KINOMEscan competition binding; conditions: compound 10.0 µM
MAPK7 (human) = MAPK7 (human) (UniProt Q13164); test: KINOMEscan competition binding; conditions: compound 10.0 µM
PLK4 (human) = PLK4 (human) (UniProt O00444); test: KINOMEscan competition binding; conditions: compound 10.0 µM
TTK (human) [2] = biological target: TTK (human) (UniProt P33981); test: KINOMEscan competition binding; conditions: for kinase still bound, per cent of control: compound 10.0 µM
PTK2 (human) = PTK2 (human) (UniProt Q05397); test: KINOMEscan competition binding; conditions: compound 10.0 µM
TTK (human) [3] = biological target: TTK (human) (UniProt P33981); test: SelectScreen, TR FRET
CAMKK2 (human) = CAMKK2 (human) (UniProt Q96RR4); test: KINOMEscan competition binding; conditions: compound 10.0 µM
[4] = tested on: PIK3CA (human), P42336 [E545K]; test: KINOMEscan competition binding; conditions: compound 10.0 µM
RPS6KA2 KD2 (human) = RPS6KA2 KD2 (human) (UniProt Q15349); test: KINOMEscan competition binding; conditions: compound 10.0 µM
MAP2K3 (human) = MAP2K3 (human) (UniProt P46734); test: KINOMEscan competition binding; conditions: compound 10.0 µM
MAP2K4 (human) = MAP2K4 (human) (UniProt P45985); test: KINOMEscan competition binding; conditions: compound 10.0 µM
CAMK2D (human) = CAMK2D (human) (UniProt Q13557); test: KINOMEscan competition binding; conditions: compound 10.0 µM
MKNK2 (human) = MKNK2 (human) (UniProt Q9HBH9); test: KINOMEscan competition binding; conditions: compound 10.0 µM
MYLK (human) = MYLK (human) (UniProt Q15746); test: KINOMEscan competition binding; conditions: compound 10.0 µM
STK33 (human) = STK33 (human) (UniProt Q9BYT3); test: KINOMEscan competition binding; conditions: compound 10.0 µM
CAMK2G (human) = CAMK2G (human) (UniProt Q13555); test: KINOMEscan competition binding; conditions: compound 10.0 µM
CAMK2A (human) = CAMK2A (human) (UniProt Q9UQM7); test: KINOMEscan competition binding; conditions: compound 10.0 µM
PLK3 (human) = PLK3 (human) (UniProt Q9H4B4); test: KINOMEscan competition binding; conditions: compound 10.0 µM
GAK (human) = GAK (human) (UniProt O14976); test: KINOMEscan competition binding; conditions: compound 10.0 µM
PTK2B (human) = PTK2B (human) (UniProt Q14289); test: KINOMEscan competition binding; conditions: compound 10.0 µM
RIOK3 (human) = RIOK3 (human) (UniProt O14730); test: KINOMEscan competition binding; conditions: compound 10.0 µM
MYLK4 (human) = MYLK4 (human) (UniProt Q86YV6); test: KINOMEscan competition binding; conditions: compound 10.0 µM
SRPK1 (human) = SRPK1 (human) (UniProt Q96SB4); test: KINOMEscan competition binding; conditions: compound 10.0 µM
RIOK1 (human) = RIOK1 (human) (UniProt Q9BRS2); test: KINOMEscan competition binding; conditions: compound 10.0 µM
BMP2K (human) = BMP2K (human) (UniProt Q9NSY1); test: KINOMEscan competition binding; conditions: compound 10.0 µM
PIM1 (human) = PIM1 (human) (UniProt P11309); test: SelectScreen, TR FRET
PIM2 (human) = PIM2 (human) (UniProt Q9P1W9); test: SelectScreen, TR FRET
[5] = tested on: KIT (human), P10721 [V559D]; test: KINOMEscan competition binding; conditions: compound 10.0 µM
FLT3 (human) = FLT3 (human) (UniProt P36888); test: KINOMEscan competition binding; conditions: compound 10.0 µM
KIT (human) = KIT (human) (UniProt P10721); test: KINOMEscan competition binding; conditions: compound 10.0 µM
[6] = tested on: FLT3 (human), P36888 [K663Q]; test: KINOMEscan competition binding; conditions: compound 10.0 µM
PDGFRB (human) = PDGFRB (human) (UniProt P09619); test: KINOMEscan competition binding; conditions: compound 10.0 µM
CLK2 (human) = CLK2 (human) (UniProt P49760); test: KINOMEscan competition binding; conditions: compound 10.0 µM
SRPK3 (human) = SRPK3 (human) (UniProt Q9UPE1); test: KINOMEscan competition binding; conditions: compound 10.0 µM
AAK1 (human) = AAK1 (human) (UniProt Q2M2I8); test: KINOMEscan competition binding; conditions: compound 10.0 µM
[7] = biological target: TYK2 JH2 pseudokinase (human) (UniProt P29597); test: KINOMEscan competition binding; conditions: compound 10.0 µM
PIM3 (human) = PIM3 (human) (UniProt Q86V86); test: KINOMEscan competition binding; conditions: compound 10.0 µM
STK17A (human) = STK17A (human) (UniProt Q9UEE5); test: KINOMEscan competition binding; conditions: compound 10.0 µM

DCLK1 (human), sequence (O15075 whole entry, looked up): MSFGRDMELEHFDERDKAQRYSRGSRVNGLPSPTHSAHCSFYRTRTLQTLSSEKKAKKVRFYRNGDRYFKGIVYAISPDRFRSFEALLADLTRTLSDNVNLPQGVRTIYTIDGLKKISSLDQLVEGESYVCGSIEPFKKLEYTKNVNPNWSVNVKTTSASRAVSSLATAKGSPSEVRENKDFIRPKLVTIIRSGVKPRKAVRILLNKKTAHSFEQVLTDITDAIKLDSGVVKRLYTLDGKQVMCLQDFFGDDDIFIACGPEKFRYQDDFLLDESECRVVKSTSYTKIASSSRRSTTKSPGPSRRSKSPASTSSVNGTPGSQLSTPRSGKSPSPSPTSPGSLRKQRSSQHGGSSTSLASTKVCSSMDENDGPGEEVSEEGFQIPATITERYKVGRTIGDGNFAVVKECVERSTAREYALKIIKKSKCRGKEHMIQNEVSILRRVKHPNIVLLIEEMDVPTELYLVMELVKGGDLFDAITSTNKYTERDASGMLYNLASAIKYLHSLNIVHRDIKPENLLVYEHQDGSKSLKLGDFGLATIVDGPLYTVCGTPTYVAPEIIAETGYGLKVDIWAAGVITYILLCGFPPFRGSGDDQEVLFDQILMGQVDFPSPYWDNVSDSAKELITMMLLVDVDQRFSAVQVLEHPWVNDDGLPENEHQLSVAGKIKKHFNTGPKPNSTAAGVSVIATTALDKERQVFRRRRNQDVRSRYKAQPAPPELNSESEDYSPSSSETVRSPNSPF
PLK4 (human), sequence (O00444 whole entry, looked up): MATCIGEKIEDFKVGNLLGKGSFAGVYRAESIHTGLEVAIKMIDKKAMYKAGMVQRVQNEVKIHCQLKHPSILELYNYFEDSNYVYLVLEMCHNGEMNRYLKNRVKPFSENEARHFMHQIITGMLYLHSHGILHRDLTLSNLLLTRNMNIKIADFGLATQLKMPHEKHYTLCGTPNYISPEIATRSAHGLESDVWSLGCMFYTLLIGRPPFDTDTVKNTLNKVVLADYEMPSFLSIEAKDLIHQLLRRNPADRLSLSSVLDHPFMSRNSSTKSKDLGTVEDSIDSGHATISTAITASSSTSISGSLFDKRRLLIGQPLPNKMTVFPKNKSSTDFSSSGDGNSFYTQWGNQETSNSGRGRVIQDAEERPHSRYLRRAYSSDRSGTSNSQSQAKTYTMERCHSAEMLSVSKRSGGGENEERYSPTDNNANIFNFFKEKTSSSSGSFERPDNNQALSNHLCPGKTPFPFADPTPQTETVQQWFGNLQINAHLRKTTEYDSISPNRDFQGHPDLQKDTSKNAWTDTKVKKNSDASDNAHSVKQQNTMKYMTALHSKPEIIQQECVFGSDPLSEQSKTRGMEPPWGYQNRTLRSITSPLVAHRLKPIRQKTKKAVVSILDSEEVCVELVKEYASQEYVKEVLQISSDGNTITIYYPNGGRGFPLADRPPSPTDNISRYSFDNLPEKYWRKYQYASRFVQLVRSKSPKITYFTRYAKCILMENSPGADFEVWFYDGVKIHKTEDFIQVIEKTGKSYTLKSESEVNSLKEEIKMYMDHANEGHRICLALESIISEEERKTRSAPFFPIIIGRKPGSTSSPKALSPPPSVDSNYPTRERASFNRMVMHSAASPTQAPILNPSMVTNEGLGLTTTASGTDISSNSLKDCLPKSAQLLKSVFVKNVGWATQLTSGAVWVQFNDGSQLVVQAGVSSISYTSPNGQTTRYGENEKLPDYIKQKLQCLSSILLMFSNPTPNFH
STK33 (human), sequence (Q9BYT3 whole entry, looked up): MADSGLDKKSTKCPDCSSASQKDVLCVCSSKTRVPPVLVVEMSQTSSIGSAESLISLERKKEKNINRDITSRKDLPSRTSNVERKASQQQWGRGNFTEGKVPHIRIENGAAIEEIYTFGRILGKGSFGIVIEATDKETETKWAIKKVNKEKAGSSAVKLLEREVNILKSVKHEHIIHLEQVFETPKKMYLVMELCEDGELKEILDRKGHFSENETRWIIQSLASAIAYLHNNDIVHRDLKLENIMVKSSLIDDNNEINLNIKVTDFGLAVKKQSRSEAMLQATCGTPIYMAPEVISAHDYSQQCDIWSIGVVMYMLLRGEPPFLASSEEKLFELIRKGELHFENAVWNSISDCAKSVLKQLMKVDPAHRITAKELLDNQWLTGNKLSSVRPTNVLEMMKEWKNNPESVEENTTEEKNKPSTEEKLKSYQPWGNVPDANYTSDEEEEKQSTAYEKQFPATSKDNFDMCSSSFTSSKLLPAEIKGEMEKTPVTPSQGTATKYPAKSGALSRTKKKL
TTK (human), sequence (P33981 whole entry, looked up): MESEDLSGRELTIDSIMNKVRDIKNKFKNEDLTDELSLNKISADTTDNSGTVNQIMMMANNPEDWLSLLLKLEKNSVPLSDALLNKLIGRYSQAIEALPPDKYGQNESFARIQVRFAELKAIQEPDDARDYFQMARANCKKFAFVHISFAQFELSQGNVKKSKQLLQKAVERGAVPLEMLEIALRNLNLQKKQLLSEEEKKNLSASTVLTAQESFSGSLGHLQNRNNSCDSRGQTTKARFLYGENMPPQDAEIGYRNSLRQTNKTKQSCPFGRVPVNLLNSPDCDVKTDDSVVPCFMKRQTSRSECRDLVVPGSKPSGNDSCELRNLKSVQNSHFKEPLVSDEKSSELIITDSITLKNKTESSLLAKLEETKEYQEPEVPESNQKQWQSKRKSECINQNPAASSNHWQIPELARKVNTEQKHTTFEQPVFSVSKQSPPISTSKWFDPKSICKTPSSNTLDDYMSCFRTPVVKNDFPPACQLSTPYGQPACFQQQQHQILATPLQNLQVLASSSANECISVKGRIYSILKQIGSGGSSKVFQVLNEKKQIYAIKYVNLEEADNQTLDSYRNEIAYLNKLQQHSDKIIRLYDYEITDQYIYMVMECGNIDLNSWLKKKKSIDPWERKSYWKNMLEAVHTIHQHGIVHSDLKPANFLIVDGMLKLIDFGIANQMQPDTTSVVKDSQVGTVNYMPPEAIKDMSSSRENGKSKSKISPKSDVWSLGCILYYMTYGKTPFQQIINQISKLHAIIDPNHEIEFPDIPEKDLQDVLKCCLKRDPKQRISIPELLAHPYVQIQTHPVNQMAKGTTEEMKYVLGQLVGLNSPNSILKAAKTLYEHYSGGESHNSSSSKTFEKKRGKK
PLK1 (human), sequence (P53350 whole entry, looked up): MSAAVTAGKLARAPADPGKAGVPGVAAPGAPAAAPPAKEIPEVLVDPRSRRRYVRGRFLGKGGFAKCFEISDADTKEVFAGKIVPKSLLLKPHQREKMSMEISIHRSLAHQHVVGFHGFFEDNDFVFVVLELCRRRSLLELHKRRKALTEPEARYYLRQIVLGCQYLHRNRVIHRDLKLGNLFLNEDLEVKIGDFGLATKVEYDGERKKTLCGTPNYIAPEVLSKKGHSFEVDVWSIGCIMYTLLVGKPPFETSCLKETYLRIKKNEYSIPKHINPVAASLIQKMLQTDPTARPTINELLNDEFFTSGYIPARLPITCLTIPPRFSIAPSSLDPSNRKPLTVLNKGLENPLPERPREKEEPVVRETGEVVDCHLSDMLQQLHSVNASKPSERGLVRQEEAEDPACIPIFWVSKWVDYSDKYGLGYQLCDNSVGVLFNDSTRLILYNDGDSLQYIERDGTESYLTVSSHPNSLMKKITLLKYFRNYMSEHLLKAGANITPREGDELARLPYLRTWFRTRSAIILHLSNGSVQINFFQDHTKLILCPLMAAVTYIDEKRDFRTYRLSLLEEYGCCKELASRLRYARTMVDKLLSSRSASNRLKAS
DCLK2 (human), sequence (Q8N568 whole entry, looked up): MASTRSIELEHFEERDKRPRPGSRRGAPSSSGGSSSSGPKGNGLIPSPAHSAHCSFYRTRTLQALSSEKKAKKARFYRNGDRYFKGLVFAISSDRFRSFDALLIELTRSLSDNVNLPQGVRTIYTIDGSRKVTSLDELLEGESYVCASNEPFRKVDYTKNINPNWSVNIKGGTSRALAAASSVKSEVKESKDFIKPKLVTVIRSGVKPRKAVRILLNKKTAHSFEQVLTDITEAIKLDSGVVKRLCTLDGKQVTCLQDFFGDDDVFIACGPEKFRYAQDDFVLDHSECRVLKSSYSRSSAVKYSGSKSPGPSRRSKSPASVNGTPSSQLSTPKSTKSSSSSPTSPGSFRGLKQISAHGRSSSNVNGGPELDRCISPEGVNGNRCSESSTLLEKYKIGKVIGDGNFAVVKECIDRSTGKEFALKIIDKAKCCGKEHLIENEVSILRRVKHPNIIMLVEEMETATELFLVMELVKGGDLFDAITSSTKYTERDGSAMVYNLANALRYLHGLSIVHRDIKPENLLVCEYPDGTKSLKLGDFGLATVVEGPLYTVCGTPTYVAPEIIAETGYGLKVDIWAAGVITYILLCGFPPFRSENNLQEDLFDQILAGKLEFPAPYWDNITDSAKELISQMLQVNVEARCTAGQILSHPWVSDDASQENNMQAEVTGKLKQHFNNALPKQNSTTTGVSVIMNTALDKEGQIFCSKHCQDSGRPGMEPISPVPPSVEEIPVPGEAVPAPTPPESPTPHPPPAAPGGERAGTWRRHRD
CLK2 (human), sequence (P49760 whole entry, looked up): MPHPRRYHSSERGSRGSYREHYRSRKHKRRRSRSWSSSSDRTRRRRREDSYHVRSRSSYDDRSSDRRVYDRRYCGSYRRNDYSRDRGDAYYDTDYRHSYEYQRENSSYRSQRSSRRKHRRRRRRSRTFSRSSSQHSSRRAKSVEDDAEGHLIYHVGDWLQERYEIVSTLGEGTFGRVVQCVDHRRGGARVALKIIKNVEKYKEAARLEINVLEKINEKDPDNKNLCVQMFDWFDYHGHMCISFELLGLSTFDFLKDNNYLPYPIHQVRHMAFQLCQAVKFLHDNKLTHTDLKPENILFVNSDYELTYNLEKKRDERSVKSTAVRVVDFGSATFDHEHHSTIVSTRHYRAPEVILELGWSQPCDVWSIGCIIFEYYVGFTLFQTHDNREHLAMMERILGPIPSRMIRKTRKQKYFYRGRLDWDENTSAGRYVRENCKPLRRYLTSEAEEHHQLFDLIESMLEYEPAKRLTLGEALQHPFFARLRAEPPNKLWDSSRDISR

For `COc1cc(N2CCN(C)CC2)ccc1Nc1ncc2c(n1)N(C(C)C)c1ccccc1C(=O)N2C`, the kinase still bound, per cent of control (TNK2 (human)) was 27%, the kinase still bound, per cent of control (ROS1 (human)) was 9.2% and the kinase still bound, per cent of control (DCLK1 (human)) was 1.2%. The kinase still bound, per cent of control (FRK (human)) was 31%, the kinase still bound, per cent of control (ALK (human)) was 14% and the kinase still bound, per cent of control (ULK2 (human)) was 25%. It also gave a kinase still bound, per cent of control (TNK1 (human)) of 3.8%, a kinase still bound, per cent of control [1] of 22% and a kinase still bound, per cent of control (PLK1 (human)) of 25%. The kinase still bound, per cent of control (DCLK2 (human)) was 1.2%, the kinase still bound, per cent of control (MAPK7 (human)) was 0% and the kinase still bound, per cent of control (PLK4 (human)) was 0.15%. The kinase still bound, per cent of control (TTK (human) [2]) was 8% and the kinase still bound, per cent of control (PTK2 (human)) was 18%.
`CCOc1cc(N2CCC(O)CC2)ccc1Nc1ncc2c(n1)N(C1CCCC1)CCC(=O)N2` showed a Kd (TTK (human) [2]) of 0.65 µM and an IC50 (TTK (human) [3]) of 7.45 µM.
`CC[C@@H]1C(=O)N(C)c2cnc(Nc3ccc(N(C)CCO)cc3OC)nc2N1C1CCCC1` showed a Kd (TTK (human) [2]) of 4.7 µM and an IC50 (TTK (human) [3]) greater than 10 µM.
For `CS(=O)(=O)Nc1ccc(-c2ccc(C=C3C(=O)NC(=O)NC3=O)o2)cc1`, the kinase still bound, per cent of control (CAMKK2 (human)) was 34% and the kinase still bound, per cent of control [4] was 20%.
For `CC[C@@H]1C(=O)N(C)c2cnc(Nc3ccc(N4CCC(O)CC4)cc3OC)nc2N1C1CCCC1`, the Kd (TTK (human) [2]) was 1.41 µM and the IC50 (TTK (human) [3]) was greater than 10 µM.
`CCN1C(=O)CCN(C2CCCC2)c2nc(Nc3ccc(N4CCC(O)CC4)cc3OC(C)C)ncc21` was tested, and the kinase still bound, per cent of control (RPS6KA2 KD2 (human)) was 12%, the kinase still bound, per cent of control (PLK1 (human)) was 4.1% and the Kd (TTK (human) [2]) was 0.253 µM. The kinase still bound, per cent of control (TTK (human) [2]) was 1.9% and the IC50 (TTK (human) [3]) was 1.09 µM.
`O=C1NC(=O)C(=Cc2ccc(-c3ccc(Cl)cc3)o2)C(=O)N1` showed a kinase still bound, per cent of control (MAP2K3 (human)) of 15% and a kinase still bound, per cent of control (MAP2K4 (human)) of 14%.
With `CC[C@@H]1C(=O)N(C)c2cnc(Nc3ccc(N(C)CCCO)cc3OC)nc2N1C1CCCC1` the Kd (TTK (human) [2]) was 3.1 µM and the IC50 (TTK (human) [3]) was greater than 10 µM.
For `CCN1C(=O)CC(c2ccccc2)N(C2CCCC2)c2nc(Nc3ccc(C(=O)NC4CCN(C)CC4)cc3OC)ncc21` (stereo unspecified), the kinase still bound, per cent of control (DCLK1 (human)) was 23%, the kinase still bound, per cent of control (CAMK2D (human)) was 30% and the kinase still bound, per cent of control (MKNK2 (human)) was 33%. For the same compound, the kinase still bound, per cent of control (PLK1 (human)) was 0.55%, the kinase still bound, per cent of control (MYLK (human)) was 26% and the kinase still bound, per cent of control (STK33 (human)) was 20%. It also gave a kinase still bound, per cent of control (CAMK2G (human)) of 26% and a kinase still bound, per cent of control (CAMK2A (human)) of 20%.
Work on `COc1cc(N(C)CCCO)ccc1Nc1ncc2c(n1)N(C1CCCC1)CCC(=O)N2C` yielded a kinase still bound, per cent of control (PLK3 (human)) of 0%, a kinase still bound, per cent of control (TNK1 (human)) of 31% and a kinase still bound, per cent of control (PLK1 (human)) of 1.7%. It also gave a kinase still bound, per cent of control (GAK (human)) of 1.9%, a kinase still bound, per cent of control (PLK4 (human)) of 12% and a kinase still bound, per cent of control (STK33 (human)) of 11%. For the same compound, the Kd (TTK (human) [2]) was 0.0588 µM, the kinase still bound, per cent of control (TTK (human) [2]) was 2.6% and the kinase still bound, per cent of control (PTK2 (human)) was 16%. For the same compound, the kinase still bound, per cent of control (PTK2B (human)) was 29% and the IC50 (TTK (human) [3]) was 0.64 µM.
`NS(=O)(=O)c1ccc(-c2ccc(/C=C3\C(=O)Nc4cccc(Br)c43)o2)cc1` showed a kinase still bound, per cent of control (RIOK3 (human)) of 17%, a kinase still bound, per cent of control (MYLK4 (human)) of 1.8% and a kinase still bound, per cent of control (SRPK1 (human)) of 16%. For the same compound, the kinase still bound, per cent of control (RIOK1 (human)) was 15%, the kinase still bound, per cent of control (BMP2K (human)) was 34% and the kinase still bound, per cent of control (MKNK2 (human)) was 34%. For the same compound, the kinase still bound, per cent of control (TTK (human) [2]) was 28%.
Compound `O=C1NC(=S)S/C1=C\c1ccc(-c2cccc3cc[nH]c23)o1` has an IC50 (PIM1 (human)) of 0.905 µM, an IC50 (PIM2 (human)) of 0.509 µM and an IC50 (TTK (human) [3]) of 0.145 µM.
`CCN1C(=O)CC(C(C)C)N(C2CCCC2)c2nc(Nc3ccc(C(=O)NC4CCN(C)CC4)cc3OC)ncc21` (stereo unspecified) gave a kinase still bound, per cent of control (DCLK1 (human)) of 0.9%, a kinase still bound, per cent of control (CAMK2D (human)) of 23% and a kinase still bound, per cent of control (DCLK2 (human)) of 1.6%. The kinase still bound, per cent of control (STK33 (human)) was 31%, the kinase still bound, per cent of control (CAMK2G (human)) was 16% and the kinase still bound, per cent of control (PTK2B (human)) was 34%. The kinase still bound, per cent of control (CAMK2A (human)) was 9.3%.
With `CCN1C(=O)CCN(C2CCCC2)c2nc(Nc3ccc(N4CCC(O)CC4)cn3)ncc21` the kinase still bound, per cent of control [5] was 31%, the kinase still bound, per cent of control (RPS6KA2 KD2 (human)) was 32% and the kinase still bound, per cent of control (DCLK1 (human)) was 8.2%. The kinase still bound, per cent of control (FLT3 (human)) was 31%, the kinase still bound, per cent of control (KIT (human)) was 33% and the kinase still bound, per cent of control [6] was 27%. For the same compound, the kinase still bound, per cent of control (PLK1 (human)) was 1.8%, the kinase still bound, per cent of control (PDGFRB (human)) was 11% and the kinase still bound, per cent of control (GAK (human)) was 16%. For the same compound, the kinase still bound, per cent of control (DCLK2 (human)) was 30%, the kinase still bound, per cent of control (PLK4 (human)) was 24% and the kinase still bound, per cent of control (STK33 (human)) was 23%. The Kd (TTK (human) [2]) was 0.582 µM, the kinase still bound, per cent of control (TTK (human) [2]) was 2% and the kinase still bound, per cent of control (CLK2 (human)) was 33%. For the same compound, the IC50 (TTK (human) [3]) was 3.45 µM.
In the case of `NS(=O)(=O)c1ccc(-c2ccc(/C=C3\C(=O)Nc4ccccc43)o2)cc1`, the kinase still bound, per cent of control (SRPK3 (human)) is reported as 26%, the kinase still bound, per cent of control (RIOK3 (human)) is reported as 6.2% and the kinase still bound, per cent of control (MYLK4 (human)) is reported as 3.1%. The kinase still bound, per cent of control (SRPK1 (human)) was 12%, the kinase still bound, per cent of control (RIOK1 (human)) was 11% and the kinase still bound, per cent of control (BMP2K (human)) was 7.7%. It also gave a kinase still bound, per cent of control (AAK1 (human)) of 23%, a kinase still bound, per cent of control [7] of 24% and a kinase still bound, per cent of control (PIM3 (human)) of 28%. The kinase still bound, per cent of control (STK17A (human)) was 12% and the kinase still bound, per cent of control (CLK2 (human)) was 25%.
For `CC[C@@H]1C(=O)N(C)c2cnc(Nc3ccc(N4CCCC(O)C4)cc3OC)nc2N1C1CCCC1` (stereo partly specified), the Kd (TTK (human) [2]) was 2.65 µM and the IC50 (TTK (human) [3]) was greater than 10 µM.
